Common to all, as to type: cell-based
Data set [1] deals with clinical Candida isolates (C. albicans, C. krusei, C. tropicalis, C. glabrata, C. parapsilosis). Briefly: Broth microdilution, MIC summarised over all clinical Candida isolates. The conditions noted are these: range or bound over all tested isolates of five Candida species. The method, then: The present inventors have discovered that 1-amino-5-isocyanonaphthalene (ICAN) and its derivatives exert excellent antifungal activity against a broad range of Candida species. […] Nevertheless, proper formulation and/or substitution with solubility enhancer groups on the naphthalene core may increase its effectiveness. Based on MIC values (MICPI=0.04−0.3 μg/ml MICTI=0.6 μg/ml) and its low cytotoxicity 1,1-N-dimethylamino-5-isocyanonaphthalene (DIMICAN) was selected to be tested on clinical Candida isolates. […] Amphotericin B (AMB) is an antifungal agent which is effective against a number of medically important fungi. The in vivo applicability of DIMICAN was tested on immunosuppressed mice and control experiments were also conducted with amphotericin B. In the model of acute invasive candidiasis, neutropenic mice were infected intravenously with C. albicans isolate 3666 (3×10^4 cfu/mouse) to establish an acute infection, and all untreated control animals died within 6 days. […]
The tested C. albicans, C. tropicalis, C. parapsilosis, C. glabrata and C. krusei ATCC strains and clinical isolates are listed in Table 2. MICs were determined according to the CLSI M27-A3 [22]. […] MICs were read visually after 48-h incubation at 35° C. using the partial (50%) inhibition (for ICAN derivatives) (PI) and total inhibition (for AMB and ICAN derivatives) (TI) criteria. MICs were determined at least twice. […]
(Dilution methods test growth across graded concentrations, often in twofold steps.)

In a further data set the test system is C. albicans SC5314. Briefly: CLSI broth microdilution susceptibility (Table 1). The conditions noted are these: 48 h, 35° C. The procedure: (§1) ICAN has 3 key moieties, namely the amino, naphthalene and isonitrile. To find out which ones of them are essential for the antifungal behavior and to design more efficient derivatives, comparative studies were carried out, where one of the moieties was exchanged or eliminated. All ICAN derivatives were tested against C. albicans SC5314, C. krusei ATCC 6258 and C. parapsilosis ATCC 22019. The antifungal agents were dissolved in 100% DMSO and diluted further in RPMI-1640 (with L-glutamine but without bicarbonate) and buffered to pH 7.0 with 0.165 M morpholinopropanesulfonic acid (MOPS). MICs were read visually after 48-h incubation at 35° C. using the partial (50%) inhibition (for ICAN derivatives) (PI) and total inhibition (for AMB and ICAN derivatives) (TI) criteria. MICs were determined at least twice.
(§2) The tested C. albicans, C. tropicalis, C. parapsilosis, C. glabrata and C. krusei ATCC strains and clinical isolates are listed in Table 2. MICs were determined according to the CLSI M27-A3 [22]. Antifungal agents were dissolved in 100% DMSO and diluted further in RPMI-1640 (with L-glutamine but without bicarbonate) (Sigma, Budapest, Hungary), and buffered to pH 7.0 with 0.165 M morpholinopropanesulfonic acid (MOPS; Sigma, Budapest, Hungary). The final concentration ranges used for AMB and ICAN derivatives were 0.125 to 4 μg/ml and 0.04 to 20 μg/ml, respectively. Yeast cell suspensions were prepared in RPMI 1640 medium and were adjusted to give a final inoculum concentration of 0.5×10^3 to 2.5×10^3 cells/ml. MICs were read visually after 48-h incubation at 35° C. using the partial (50%) inhibition (for ICAN derivatives) (PI) and total inhibition (for AMB and ICAN derivatives) (TI) criteria. MICs were determined at least twice. For amphotericin B isolates with MIC values of ≤2 mg/L were considered wild-types. [Pfaller M A, 2012]

In the next data set the test system is C. krusei ATCC 6258. Briefly: CLSI broth microdilution susceptibility (Table 1). The conditions noted are these: 48 h, 35° C. The procedure: as §1, §2
The test system of data set [2] is C. parapsilosis ATCC 22019. Briefly: CLSI broth microdilution susceptibility (Table 1). The settings on record: 48 h, 35° C. The method, then: as §1, §2
A further data set has as its system human cell cultures. Put plainly: MTT bio assay cytotoxicity. The conditions noted are these: MTT bio assay technique. A general note: Tetrazolium assays rely on reduction of a dye to a coloured formazan, in cell work by metabolically active cells.

Molecules are shown by their SMILES.

Regarding `[C-]#[N+]c1cccc2c(N(C)C)cccc12` [DIMICAN, N,N-dimethyl-1-amino-5-isocyanonaphthalene], the “total minimum inhibitory concentration (MICTI)” value in data set [1] fell in the range of 0.08 to 1.25 µg/mL. Further, the MICPI against C. albicans SC5314 (partial (50%) inhibition) is at most 0.04 µg/mL; with C. krusei ATCC 6258 (partial (50%) inhibition), 0.15 µg/mL; in data set [2] (partial (50%) inhibition) it was 0.15 µg/mL. The MICTI in the data set on C. albicans SC5314 (total inhibition) turned out to be 0.6 µg/mL; against C. krusei ATCC 6258 (total inhibition) it was 0.3 µg/mL; in data set [2] (total inhibition), 0.6 µg/mL. In the data set with human cell cultures, this compound yielded an LD50 of 13 µg/mL.
